Non-standard residues stand in square brackets, D forms with d. No end group written: not given here. *: point of attachment. Dnp = O=[N+]([O-])c1ccc(*)c([N+](=O)[O-])c1; 2Abz = Nc1ccccc1C(=O)O
Key:
[1] = tested on: MASPs in purified MBL-MASP complex; assay: Substrate cleavage assay: kinetic constants of MASP proteolytic activity on synthetic C4-based substrates; format: biochemical; conditions: proteolytic activity of MASPs in purified MBL-MASP complex on the synthetic substrate; sigmoidal kinetics
Experimental: For quantitative measurements, typically the signal emitted by the label is measured from the beginning of the reaction and the results used to obtain an initial rate. Substrates consisting only of the residues N-terminal to the cleavage site of C4 show normal Michaelis-Menten kinetics for their cleavage by both C1s and the MBL-MASP complex. This means that the dependence of the initial velocity for the cleavage reaction on substrate concentration can be described by a rectangular hyperbola and the constants Km (Michaelis constant which equates to the affinity between enzyme and substrate) and Vmax (maximal velocity of the reaction) can be derived from a non-linear regression fit of the data. […]
The substrate (2Abz-[…]-Lys(Dnp)-NH2) includes the four amino acids before and after the C4 cleavage site and an aminobenzoic acid (Abz) fluorescent group attached to its N-terminal end. […] The change in fluorescence can then be measured and is proportional to the proteolytic activity of the enzyme.
The substrate and enzymes (C1s (10 μg/mL) or purified MBL material) are incubated for several minutes in a fluorescence plate reader set at 37° C. 100 μL of diluted substrate is then transferred into wells containing 100 μL diluted enzyme (C1s or purified MBL material) and the kinetics of fluorescence is measured as follows: excitation=320 nm; emission=420 nm. […]

[2] = tested on: C4b deposition from MBL-deficient human serum on solid-phase mannan; assay: Functional complement (C4) deposition assay; format: biochemical; conditions: for Complement activation capacity (in words): Example 4 titration, 1-100 μg/ml
Experimental: All quantitation assays were standardised using an international, primary standard pool serum (Statens Serum Institut, Copenhagen, Denmark), containing 3.3 μg MBL/ml serum. For the sandwich ELISA and the C4 deposition assay, a standard curve was made with 1:25, 1:50, 1:75, 1:100, 1:150 and 1:200 dilutions of this serum, tested in triplicate. Standard dilutions for the mannan binding ELISA were 1:25, 1:50, 1:100, 1:150, 1:200, 1:300 and 1:400. Diluents were as detailed below. An in-house secondary control was prepared from pooled normal donor plasma and run in triplicate on each test plate, the results plotted for each run. Results of any test runs, in which values obtained for the in-house control MBL were outside +/−2SD from the previously determined mean value, led to rejection of the whole run. Run to run standard curves were overlayed to ensure a constant slope and thus provide another sensitive means of quality control.
Microtitre plates (as above) were coated overnight at 4° C. with 1 μg/mL mannan (Sigma-Aldrich Pty Ltd, Castle Hill, Australia) in fresh 50 mM carbonate-bicarbonate buffer, pH 9.6. Normal donor plasmas were tested in triplicate, diluted to 1:25 in TBST with 15 mM CaCl2, pH 7.2 which was also the wash buffer. A 1:10 dilution was also tested and interpreted only to confirm low or near absent levels of C4 deposition in donors with low amounts of MBL. After 90 minutes at 22° C., wells were washed 5 times and MBL-deficient human serum (completely deficient in MBL, obtained with informed consent) diluted 1:20 in barbital buffer, […], 10 mM sodium barbitone and 5 mM CaCl2 was added to wells and incubated at 22° C. for 30 minutes to enable complement activation. Wells were washed 5 times and biotinylated rabbit anti-human C4 (Sigma-Aldrich Pty Ltd) biotinylated using Biotin Tag (Sigma-Aldrich Pty Ltd) which was added at 1:1500 in TBST. Following incubation at 22° C. for 90 minutes, wells were washed 5 times and 1:500 ExtrAvidin peroxidase (Sigma-Aldrich Pty Ltd) in TBST was added and incubated at 22° C. for 40 minutes. Colour development and reading was as for the quantitation assays.
1 μl of Statens Serum Institut (SSI) MBL Standard was arbitrarily assigned 1 unit of C4 deposition activity. The assay was standardised against the SSI standard. Between run CV for the assay at 1:25 was 9.4%.
The positive control for MASP-2 activity was MASP containing, affinity-purified MBL complex. All fractions obtained in Example 1 were considered MASP-depleted with MASP activity measured as slope/sec less than 2.3 (range 0.5-2.3). […] Both MASP-depleted fractions and the MBL-MASP complex were titrated to provide MBL protein concentrations at 1 to 100 μg/ml. Fractions were assayed in parallel in the mannan-binding and C4-deposition assays as described in this document. The result from the Mannan-binding assay was plotted against C4 activity for each fraction.
The fractions supplied in Example 3 were pooled according to total protein concentration. […] The two MASP-depleted MBL pools were again titrated in the range of 1-100 μg/ml in parallel with the MBL-MASP complex. All samples were assayed on both the Mannan-binding and C4-deposition assays in parallel. Actual MBL quantification (mannan-binding assay) results were graphed against corresponding C4 activation capability for the fraction.

2Abz-GLQRALEI-Lys(Dnp)-NH2 ([2Abz]GLQRALEIK(Dnp)-NH2; N-terminus assumed; SMILES CC[C@H](C)[C@H](NC(=O)[C@H](CCC(=O)O)NC(=O)[C@H](CC(C)C)NC(=O)[C@H](C)NC(=O)[C@H](CCCNC(=N)N)NC(=O)[C@H](CCC(N)=O)NC(=O)[C@H](CC(C)C)NC(=O)CNC(=O)c1ccccc1N)C(=O)N[C@@H](CCCCNc1ccc([N+](=O)[O-])cc1[N+](=O)[O-])C(N)=O) [C4 (P4-P4′), quenched fluorescent substrate with the four amino acids before and after the C4 cleavage site]
Affinity constant K0.5 [1]: 6.50 ± 0.32 µM

MASP Pool 8-9: pool of MASP-depleted MBL fractions 8 and 9, total protein 35 μg/ml
Complement activation capacity (in words) [2]: reached the high assay limit
C4 ([2]; MBL 1.122 ug/mL, Table 3): 0.049 U/ul
C4 ([2]; MBL 2.032 ug/mL, Table 3): 0.108 U/ul
C4 ([2]; MBL 4.278 ug/mL, Table 3): 0.189 U/ul
C4 ([2]; MBL 6.506 ug/mL, Table 3): 0.31 U/ul
C4 ([2]; MBL 7.362 ug/mL, Table 3): 0.403 U/ul
C4 ([2]; MBL 8.995 ug/mL, Table 3): 0.435 U/ul
C4 ([2]; MBL 10.205 ug/mL, Table 3): 0.48 U/ul
C4 ([2]; MBL 12.718 ug/mL, Table 3): 0.552 U/ul
C4 ([2]; MBL 20 ug/mL, Table 3): 0.595 U/ul
C4 ([2]; MBL 30 ug/mL, Table 3): 0.776 U/ul
C4 ([2]; MBL 35 ug/mL, Table 3): 0.969 U/ul

MASP-depleted Frac. 3: fraction 3 of purified MASP-depleted MBL from the Example 1 Sephacryl S-300 column, 40 μg/mL
C4 ([2]; MBL 1.02 ug/mL, Table 2): 0.107 U/ul
C4 ([2]; MBL 2.1 ug/mL, Table 2): 0.202 U/ul
C4 ([2]; MBL 2.57 ug/mL, Table 2): 0.359 U/ul
C4 ([2]; MBL 5.65 ug/mL, Table 2): 0.568 U/ul
C4 ([2]; MBL 7.97 ug/mL, Table 2): 0.761 U/ul
C4 ([2]; MBL 10.53 ug/mL, Table 2): 0.818 U/ul
C4 ([2]; MBL 12 ug/mL, Table 2): xs
C4 ([2]; MBL 16 ug/mL, Table 2): xs
C4 ([2]; MBL 20 ug/mL, Table 2): xs
C4 ([2]; MBL 30 ug/mL, Table 2): xs
C4 ([2]; MBL 40 ug/mL, Table 2): xs

MASP-depleted Frac. 5: fraction 5 of purified MASP-depleted MBL from the Example 1 Sephacryl S-300 column, 80 μg/mL
C4 ([2]; MBL 1.32 ug/mL, Table 2): 0.081 U/ul
C4 ([2]; MBL 2.49 ug/mL, Table 2): 0.137 U/ul
C4 ([2]; MBL 5.11 ug/mL, Table 2): 0.304 U/ul
C4 ([2]; MBL 7.83 ug/mL, Table 2): 0.417 U/ul
C4 ([2]; MBL 8.79 ug/mL, Table 2): 0.465 U/ul
C4 ([2]; MBL 10 ug/mL, Table 2): 0.671 U/ul
C4 ([2]; MBL 12 ug/mL, Table 2): 0.716 U/ul
C4 ([2]; MBL 16 ug/mL, Table 2): 0.805 U/ul
C4 ([2]; MBL 20 ug/mL, Table 2): 0.762 U/ul
C4 ([2]; MBL 30 ug/mL, Table 2): 0.906 U/ul
C4 ([2]; MBL 40 ug/mL, Table 2): xs
C4 ([2]; MBL 80 ug/mL, Table 2): xs

MASP-depleted Pool 3-7: pool of MASP-depleted MBL fractions 3-7, total protein 85 μg/ml
Complement activation capacity (in words) [2]: reached excess
C4 ([2]; MBL 1.124 ug/mL, Table 3): 0.043 U/ul
C4 ([2]; MBL 1.677 ug/mL, Table 3): 0.104 U/ul
C4 ([2]; MBL 3.905 ug/mL, Table 3): 0.25 U/ul
C4 ([2]; MBL 5.617 ug/mL, Table 3): 0.38 U/ul
C4 ([2]; MBL 7.151 ug/mL, Table 3): 0.506 U/ul
C4 ([2]; MBL 7.796 ug/mL, Table 3): 0.55 U/ul
C4 ([2]; MBL 9.377 ug/mL, Table 3): 0.596 U/ul
C4 ([2]; MBL 14.045 ug/mL, Table 3): 0.718 U/ul
C4 ([2]; MBL 20 ug/mL, Table 3): 0.825 U/ul
C4 ([2]; MBL 40 ug/mL, Table 3): 0.954 U/ul
C4 ([2]; MBL 80 ug/mL, Table 3): xs
C4 ([2]; MBL 85 ug/mL, Table 3): xs

Source: US20050037949A1, “Mannose binding lectin and uses thereof” (priority 2002, published 2005)
